The source of these data is PMC6154694, “Absorption, Metabolic Stability, and Pharmacokinetics of Ginger Phytochemicals” (Molecules : A Journal of Synthetic Chemistry and Natural …, 2017).

The nature of series [1]: Liver microsomal stability, rat. The note with it: protein 0.5 mg/mL; for remaining at 0.5 h, 10 µM: IGS Sprague-Dawley, pooled liver microsomes, pH 7.4, substrate 10 µM, n = 2, read-out: % Remaining at 30 min; for Intrinsic Clearance: rat liver microsomes, substrate 10 µM, 45 mg protein/g liver. It is filed as in vitro ADME, IGS Sprague-Dawley rat. The protocol: (§1) Pooled liver microsomes from CD1 mouse, IGS Sprague-Dawley rat, Beagle dog, and mixed gender human were used for assays. Incubations (1 mL) consisted of liver microsomes (0.5 mg/mL), NADPH (1 mM) and 100 mM sodium phosphate buffer (pH 7.4). Following pre-incubation (10 min, 37 °C), reactions were initiated by spiking ACN/DMSO (80:20) stock solutions of GE phenolics (5 μL, 10 μM). Samples (100 μL) were withdrawn at 0, 5, 10, 15, 20 and 30 min and quenched with 200 μL acetonitrile containing internal standard. Concomitant NADPH-free control incubations were prepared similarly.
For orientation: Liver microsomes are a subcellular fraction often used to study metabolism.

Series [2] in a line: pH dependent kinetic solubility in hydrochloride, citrate and phosphate buffers. The format is physicochemical. The note with it: 23 °C, kinetic from dmso stock, tested 10 to 100 µM, n = 2. The protocol: Calibration standards were prepared by spiking 5 μL of DMSO stock solutions into 995 μL acetonitrile/buffer (1:1) mixture. Following centrifugation (10,000 rpm, 10 min, 25 °C) the reaction samples were diluted 1:1 with acetonitrile.

Series [3] in a line: Solubility and stability in simulated gastric fluid (SGF). It is filed as in vitro ADME. The note with it: pH 1.2, 37 °C, n = 2. As to the method:
(§2) SGF and SIF were prepared as per USP method. Briefly, SGF was prepared by adding 2 g of sodium chloride and 3.2 g of pepsin with water and pH was adjusted to 1.2 ± 0.1 using hydrochloric acid (7 mL) and volume made up to 1 L. SIF was prepared by dissolving 6.8 g monobasic potassium phosphate and 10 g pancreatin in Milli-Q water (Millipore, Billerica, MA, USA). pH was adjusted to 6.8 ± 0.1 with sodium hydroxide solution and volume was made upto 1 L. Reactions were initiated by spiking DMSO stock solutions of GE phenolics 10 μL into 1990 μL of SGF and SIF incubated at 37 °C for 10 min. Samples (200 μL) were withdrawn at 0, 15, 30, and 60 min for SGF and at 0, 30, 60, and 120 min for SIF and quenched with 200 μL acetonitrile containing internal standard.

Series [4] is described as follows: Liver microsomal stability, dog. It is filed as in vitro ADME, Beagle dog. As to conditions: protein 0.5 mg/mL; for remaining at 0.5 h, 10 µM: Beagle, pooled liver microsomes, pH 7.4, substrate 10 µM, n = 2, read-out: % Remaining at 30 min; for Intrinsic Clearance: dog liver microsomes, substrate 10 µM, 45 mg protein/g liver. The protocol:
as §1

Series [5] can be described thus: Solubility and stability in simulated intestinal fluid (SIF). It is filed as in vitro ADME. As to conditions: pH 6.8, 37 °C, n = 2. As to the method:
as §2

Series [6] can be described thus: Liver microsomal stability, mouse. It is filed as in vitro ADME, CD1 mouse. The note with it: protein 0.5 mg/mL; for remaining at 0.5 h, 10 µM: CD1, pooled liver microsomes, pH 7.4, substrate 10 µM, n = 2, read-out: % Remaining at 30 min; for Intrinsic Clearance: mouse liver microsomes, substrate 10 µM, 45 mg protein/g liver. The protocol:
as §1

A short description of series [7]: Liver microsomal stability, human. It is filed as in vitro ADME. The note with it: protein 0.5 mg/mL; for remaining at 0.5 h, 10 µM: both sexes, pooled liver microsomes, pH 7.4, substrate 10 µM, n = 2, read-out: % Remaining at 30 min; for Intrinsic Clearance: human liver microsomes, substrate 10 µM, 45 mg protein/g liver. As to the method: as §1
[8] abbreviates: 100 mM citrate buffer, aqueous buffer, pH 4, citrate buffer.
Setting [9] is: 100 mM phosphate buffer, aqueous buffer, pH 7.4, phosphate buffer.
The mark [10] stands for this setting: simulated gastric fluid, pH 2, hydrochloride buffer.

On to `CCCCC[C@H](O)CC(=O)CCc1ccc(O)c(OC)c1` [6G, 6-gingerol], for which the amount remaining (in general, what is left of the initial amount, in per cent) at 0.5 h, 10 µM in series [1] came out at 50%; in series [4], 67%; in series [6], 30%; in series [7], 56%. The “Intrinsic Clearance” value in series [1] stood at 11.2 mL/min/g Liver; in series [4], 14.1 mL/min/g Liver; in series [6], 10.5 mL/min/g Liver; in series [7], 6.6 mL/min/g Liver. Also, the solubility at 2 h in series [2] (setting [8]), in series [2] (setting [9]) and in series [2] (setting [10]) was greater than 100 µM in each case. Besides, the half-life (in general, the time in which the quantity being followed falls by half) at 10 µM in series [3] was greater than 1 h; in series [5] it was greater than 2 h.

`CCCCC/C=C/C(=O)CCc1ccc(O)c(OC)c1` [6S, 6-shogaol]: the share remaining at 0.5 h, 10 µM in series [1] turned out to be 1%; in series [4], 9%; in series [6], 3%; in series [7], 1%. The “Intrinsic Clearance” value in series [1] is 13.0 mL/min/g Liver; in series [4] it was 29.9 mL/min/g Liver; in series [6] it was 15.7 mL/min/g Liver; in series [7], 8.4 mL/min/g Liver. For the same compound, the solubility at 2 h in series [2] (setting [8]), in series [2] (setting [9]) and in series [2] (setting [10]) was less than 10 µM in each case. The half-life at 10 µM is greater than 1 h in series [3] and greater than 2 h in series [5].

Regarding `CCCCCCCC(O)CC(=O)CCc1ccc(O)c(OC)c1` (stereo not shown) [8G, 8-gingerol], the share remaining at 0.5 h, 10 µM in series [1] turned out to be 9%; in series [4] it was 6%; in series [6] it was 3%; in series [7] it was 1%. In addition, the “Intrinsic Clearance” value in series [1] is recorded as 7.0 mL/min/g Liver; in series [4], 14.0 mL/min/g Liver; in series [6], 15.1 mL/min/g Liver; in series [7] it was 8.5 mL/min/g Liver. Also, the solubility at 2 h in series [2] (setting [8]), in series [2] (setting [9]) and in series [2] (setting [10]) was greater than 100 µM in each case. Further, the half-life at 10 µM in series [3] is greater than 1 h; in series [5] it was greater than 2 h.

For `CCCCCCCCCC(O)CC(=O)CCc1ccc(O)c(OC)c1` (stereo not shown) [10G, 10-gingerol], the fraction remaining at 0.5 h, 10 µM in series [1] was 13%; in series [4], 45%; in series [6], 10%; in series [7] it was 22%. For the same compound, the “Intrinsic Clearance” value in series [1] is on record as 5.4 mL/min/g Liver; in series [4], 5.6 mL/min/g Liver; in series [6], 8.0 mL/min/g Liver; in series [7], 6.7 mL/min/g Liver. For the same compound, the solubility at 2 h in series [2] (setting [8]), in series [2] (setting [9]) and in series [2] (setting [10]) was less than 10 µM in each case. The half-life at 10 µM in series [3] was greater than 1 h; in series [5] it was greater than 2 h.
